Measurements reported in PubChem BioAssay AID2060627 (Molecular Pharmacology Branch, DTP, NCI, 2025).

System: 156681-154-R-J1-PDC complex spheroid viability
Assay: Anticancer human tumor 156681-154-R-J1-PDC patient-derived melanoma cell line growth inhibition [CLK]
Conditions: for IC50: curve of first compound; for viability, T/C: stronger effect = lower value
Method in brief: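 Patient-derived tumor cells grown as complex spheroids with HUVEC endothelial cells and mesenchymal stem cells, treated with drug combinations. Concentrations descend in half-log steps from near clinical Cmax, or from 10 microM if Cmax unknown.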

[1] = second compound 0.0316 µM, first compound 0.0316 µM
[2] = second compound 0.0316 µM, first compound 0.1 µM
[3] = second compound 0.0316 µM, first compound 0.316 µM
[4] = second compound 0.0316 µM, first compound 1 µM
[5] = second compound 0.1 µM, first compound 0.0316 µM
[6] = second compound 0.1 µM, first compound 0.1 µM
[7] = second compound 0.1 µM, first compound 0.316 µM
[8] = second compound 0.1 µM, first compound 1 µM
[9] = second compound 0.316 µM, first compound 0.0316 µM
[10] = second compound 0.316 µM, first compound 0.1 µM
[11] = second compound 0.316 µM, first compound 0.316 µM
[12] = second compound 0.316 µM, first compound 1 µM
[13] = second compound 1 µM, first compound 0.0316 µM
[14] = second compound 1 µM, first compound 0.1 µM
[15] = second compound 1 µM, first compound 0.316 µM
[16] = second compound 1 µM, first compound 1 µM
[17] = second compound 3.16 µM, first compound 0.0316 µM
[18] = second compound 3.16 µM, first compound 0.1 µM
[19] = second compound 3.16 µM, first compound 0.316 µM
[20] = second compound 3.16 µM, first compound 1 µM
[21] = second compound 10 µM, first compound 0.0316 µM
[22] = second compound 10 µM, first compound 0.1 µM
[23] = second compound 10 µM, first compound 0.316 µM
[24] = second compound 10 µM, first compound 1 µM
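Note: spheroids exposed to the agents for seven days.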
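Throughout, for viability, T/C: 100% = DMSO vehicle control viability.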

Compound: CCN1CCN(Cc2ccc(Nc3ncc(F)c(-c4cc(F)c5nc(C)n(C(C)C)c5c4)n3)nc2)CC1 + CNC(=O)c1ccc(Nc2nc(OC3CCCC3)c3c(-c4ccc5nc(C)oc5c4)c[nH]c3n2)c(OC)c1
- IC50 (second compound 0.0316 µM): 0.825 µM
- IC50 (second compound 0.1 µM): 0.429 µM
- IC50 (second compound 0.316 µM): 0.429 µM
- IC50 (second compound 1 µM): 0.394 µM
- IC50 (second compound 3.16 µM): < 0.00316 µM
- IC50 (second compound 10 µM): < 0.00316 µM
- viability, T/C (second compound 0.0316 µM, first compound 0.00316 µM): 93%
- viability, T/C (second compound 0.0316 µM, first compound 0.01 µM): 104%
- viability, T/C [1]: 83.7%
- viability, T/C [2]: 84.2%
- viability, T/C [3]: 75.5%
- viability, T/C [4]: 44.3%
- viability, T/C (second compound 0.1 µM, first compound 0.00316 µM): 50.5%
- viability, T/C (second compound 0.1 µM, first compound 0.01 µM): 72.3%
- viability, T/C [5]: 68.2%
- viability, T/C [6]: 57.9%
- viability, T/C [7]: 52.9%
- viability, T/C [8]: 38.6%
- viability, T/C (second compound 0.316 µM, first compound 0.00316 µM): 85.4%
- viability, T/C (second compound 0.316 µM, first compound 0.01 µM): 62%
- viability, T/C [9]: 72.2%
- viability, T/C [10]: 77.8%
- viability, T/C [11]: 54%
- viability, T/C [12]: 39%
- viability, T/C (second compound 1 µM, first compound 0.00316 µM): 51.8%
- viability, T/C (second compound 1 µM, first compound 0.01 µM): 56.5%
- viability, T/C [13]: 51.3%
- viability, T/C [14]: 60.2%
- viability, T/C [15]: 61%
- viability, T/C [16]: 24.2%
- viability, T/C (second compound 3.16 µM, first compound 0.00316 µM): 61.6%
- viability, T/C (second compound 3.16 µM, first compound 0.01 µM): 47.8%
- viability, T/C [17]: 40.7%
- viability, T/C [18]: 48%
- viability, T/C [19]: 46.6%
- viability, T/C [20]: 19.8%
- viability, T/C (second compound 10 µM, first compound 0.00316 µM): 51.7%
- viability, T/C (second compound 10 µM, first compound 0.01 µM): 38.5%
- viability, T/C [21]: 43.8%
- viability, T/C [22]: 51%
- viability, T/C [23]: 41.9%
- viability, T/C [24]: 21.7%

Compound: Nc1ccccc1NC(=O)c1ccc(CNC(=O)OCc2cccnc2)cc1 + CNC(=O)c1ccc(Nc2nc(OC3CCCC3)c3c(-c4ccc5nc(C)oc5c4)c[nH]c3n2)c(OC)c1
- IC50 (second compound 0.0316 µM): 0.572 µM
- IC50 (second compound 0.1 µM): 0.293 µM
- IC50 (second compound 0.316 µM): 0.337 µM
- IC50 (second compound 1 µM): 0.141 µM
- IC50 (second compound 3.16 µM): 0.0676 µM
- IC50 (second compound 10 µM): 0.0507 µM
- viability, T/C [1]: 115%
- viability, T/C [2]: 91.2%
- viability, T/C [3]: 64.9%
- viability, T/C [4]: 42%
- viability, T/C (second compound 0.0316 µM, first compound 3.16 µM): 3.29%
- viability, T/C (second compound 0.0316 µM, first compound 10 µM): 1.7%
- viability, T/C [5]: 70%
- viability, T/C [6]: 66.3%
- viability, T/C [7]: 45.7%
- viability, T/C [8]: 30.2%
- viability, T/C (second compound 0.1 µM, first compound 3.16 µM): 3.46%
- viability, T/C (second compound 0.1 µM, first compound 10 µM): 5.63%
- viability, T/C [9]: 58.1%
- viability, T/C [10]: 59.4%
- viability, T/C [11]: 46%
- viability, T/C [12]: 34.6%
- viability, T/C (second compound 0.316 µM, first compound 3.16 µM): 4.74%
- viability, T/C (second compound 0.316 µM, first compound 10 µM): 8.02%
- viability, T/C [13]: 64.6%
- viability, T/C [14]: 50.3%
- viability, T/C [15]: 41.3%
- viability, T/C [16]: 28.1%
- viability, T/C (second compound 1 µM, first compound 3.16 µM): 4.08%
- viability, T/C (second compound 1 µM, first compound 10 µM): 0.99%
- viability, T/C [17]: 49.8%
- viability, T/C [18]: 53.3%
- viability, T/C [19]: 35.8%
- viability, T/C [20]: 23.8%
- viability, T/C (second compound 3.16 µM, first compound 3.16 µM): 3.27%
- viability, T/C (second compound 3.16 µM, first compound 10 µM): 0.11%
- viability, T/C [21]: 57.1%
- viability, T/C [22]: 38.4%
- viability, T/C [23]: 29.6%
- viability, T/C [24]: 22.6%
- viability, T/C (second compound 10 µM, first compound 3.16 µM): 2.77%
- viability, T/C (second compound 10 µM, first compound 10 µM): 0.3%
